Read-outs that look alike come from different tables or passages of the source. Where a SMILES comes first, the peptide text is derived from it. [ ]: non-standard residue; d: D form. The star is where a group is joined. X1 = O=C(O)c1cc(NC(=S)*)ccc1-c1c2ccc(=O)cc-2oc2cc(O)ccc12; 2Nal = N[C@@H](Cc1ccc2ccccc2c1)C(=O)O; Bta = N[C@@H](Cc1csc2ccccc12)C(=O)O; Benzyl(3,4-Cl2) = Clc1ccc(C*)cc1Cl; pGlu = O=C1CC[C@@H](C(=O)O)N1; Pip = O=C(O)[C@@H]1CCCCN1; CH2PO3H2 = O=P(O)(O)C*; Ahx = NCCCCCC(=O)O; Mpa = O=C(O)CCS
Target: hPin1 (Protein interacting with NIMA (-kinase)) (Homo sapiens, UniProt Q13526)
Sequence (Q13526 whole entry): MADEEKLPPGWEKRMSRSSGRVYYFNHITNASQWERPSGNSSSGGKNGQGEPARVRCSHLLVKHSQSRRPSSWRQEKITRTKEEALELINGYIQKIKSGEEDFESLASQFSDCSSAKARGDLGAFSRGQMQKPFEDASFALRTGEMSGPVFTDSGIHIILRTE
Test: protease-coupled PPIase assay, hPin1
Assay type: biochemical
[1] = hPin1 6 nM, substrate Ac-Ala-Ala-Ser(PO3H2)-Pro-Arg-pNA, trypsin, 35 mM HEPES pH 7.8, 6° C., read-out: Specificity of the inhibition with rotamases, Target T-1 (IC50 class)

| Compound | IC50 [1] | IC50 |
| --- | --- | --- |
| CC(=O)N1C(=O)SCC1C(=O)N[C@@H](CSCP(=O)(O)O)C(=O)N1CCCC[C@H]1C(=O)N[C@@H](Cc1ccc2ccccc2c1)C(N)=O (stereo in doubt) [Compound 42, {2-[(3-Acetyl-2-oxo-thiazolidine-4-carbonyl)-amino]-3-[2-(1-carbamoyl-2-naphthalen-2-yl-ethylcarbamoyl)-piperidin-1-yl]-3-oxo-propylsulfanylmethyl}-phosphonic acid] |  | < 1 µM |
| NC(=O)[C@H](Cc1ccc2ccccc2c1)NC(=O)[C@@H]1CCCCN1C(=O)[C@H](CSCP(=O)(O)O)NC(=O)[C@H](Cc1csc2ccccc12)NC(=O)CCCCCNC(=S)Nc1ccc(-c2c3ccc(=O)cc-3oc3cc(O)ccc23)c(C(=O)O)c1 [Compound 9] ({X1-Ahx}-[Bta]C(CH2PO3H2)[Pip][2Nal]-NH2) |  | < 1 µM |
| CCCCOC(=O)N[C@@H](CSCP(=O)(O)O)C(=O)N1CCCC[C@H]1C(=O)N[C@@H](Cc1ccc2ccccc2c1)C(N)=O [Compound 44, {2-Butoxycarbonylamino-3-[2-(1-carbamoyl-2-naphthalen-2-yl-ethylcarbamoyl)-piperidin-1-yl]-3-oxo-propylsulfanylmethyl}-phosphonic acid] | 1 to 10 µM |  |
| O=C(Nc1ccccc1)[C@@H]1CCCCN1C(=O)CSCP(=O)(O)O [Compound 60, [2-Oxo-2-(2-phenylcarbamoyl-piperidin-1-yl)-ethylsulfanylmethyl]-phosphonicacid] | 1 to 10 µM |  |
| NC(=O)[C@H](Cc1ccc2ccccc2c1)NC(=O)[C@@H]1CCCCN1C(=O)[C@H](CSCP(=O)(O)O)NC(=O)CCN1CCCCC1 [Compound 54, [3-[2-(1-Carbamoyl-2-naphthalen-2-yl-ethylcarbamoyl)-piperidin-1-yl]-3-oxo-2-(3-piperidin-1-yl-propionylamino)-propylsulfanylmethyl]-phosphonicacid] | 1 to 10 µM |  |
| COC(=O)N[C@@H](CSCP(=O)(O)O)C(=O)N1CCCC[C@H]1C(=O)N[C@@H](Cc1ccc2ccccc2c1)C(N)=O [Compound 45, {3-[2-(1-Carbamoyl-2-naphthalen-2-yl-ethylcarbamoyl)-piperidin-1-yl]-2-methoxycarbonylamino-3-oxo-propylsulfanylmethyl}-phosphonic acid] | 1 to 10 µM |  |
| NC(=O)[C@H](Cc1ccc2ccccc2c1)NC(=O)[C@@H]1CCCCN1C(=O)[C@H](CSCP(=O)(O)O)NC(=O)CCc1cccs1 [Compound 16, [3-[2-(1-Carbamoyl-2-naphthalen-2-yl-ethylcarbamoyl)-piperidin-1-yl]-3-oxo-2-(3-thiophen-2-yl-propionylamino)-propylsulfanylmethyl]-phosphonicacid] | 1 to 10 µM |  |
| CNC(=O)CC(SCP(=O)(O)O)C(=O)N1CCCC[C@H]1C(=O)N[C@@H](Cc1ccc2ccccc2c1)C(N)=O (mixture of isomers) [Compound 69, {2-[2-(1-Carbamoyl-2-naphthalen-2-yl-ethylcarbamoyl)-piperidin-1-yl]-1-methylcarbamoylmethyl-2-oxo-ethylsulfanylmethyl}-phosphonic acid] | 1 to 10 µM |  |
| NC(=O)[C@H](Cc1ccc2ccccc2c1)NC(=O)[C@@H]1CCCCN1C(=O)[C@H](CSCP(=O)(O)O)NC(=O)OCC1c2ccccc2-c2ccccc21 [Compound 17] | 1 to 10 µM |  |
| NC(=O)[C@H](Cc1ccc2ccccc2c1)NC(=O)[C@@H]1CCCCN1C(=O)[C@H](CSCP(=O)(O)O)NC(=O)[C@@H]1CCC(=O)N1 [Compound 39, {3-[2-(1-Carbamoyl-2-naphthalen-2-yl-ethylcarbamoyl)-piperidin-1-yl]-3-oxo-2-[(5-oxo-pyrrolidine-2-carbonyl)-amino]-propylsulfanyl-methyl}-phosphonic acid] ([pGlu]C(CH2PO3H2)[Pip][2Nal]-NH2) |  | < 1 µM |
| NC(=O)[C@H](Cc1ccc2ccccc2c1)NC(=O)[C@@H]1CCCCN1C(=O)[C@H](CSCP(=O)(O)O)NC(=O)C1(c2ccccc2)CCCC1 [Compound 33, {3-[2-(1-Carbamoyl-2-naphthalen-2-yl-ethylcarbamoyl)-piperidin-1-yl]-3-oxo-2-[(1-phenyl-cyclopentanecarbonyl)-amino]-propylsulfanylmethyl}-phosphonicacid] | 1 to 10 µM |  |
| CC(=O)N[C@@H](Cc1csc2ccccc12)C(=O)N[C@H](CSCP(=O)(O)O)C(=O)N1CCCC[C@H]1C(=O)N[C@@H](Cc1ccc2ccccc2c1)C(N)=O (stereo in doubt) [Compound 3, {2-(2-Acetylamino-3-benzo[b]thiophen-3-yl-propionylamino)-3-[2-(1-carbamoyl-2-naphthalen-2-yl-ethylcarbamoyl)-piperidin-1-yl]-3-oxo-propylsulfanylmethyl}-phosphonic acid] |  | < 1 µM |
| Cc1csc(C(Cc2ccc3ccccc3c2)NC(=O)[C@@H]2CCCCN2C(=O)CSCP(=O)(O)O)n1 (some centres unmarked) [Compound 74, (2-{2-[1-(4-Methyl-thiazol-2-yl)-2-naphthalen-2-yl-ethylcarbamoyl]-piperidin-1-yl}-2-oxo-ethylsulfanylmethyl)-phosphonic acid] | 1 to 10 µM |  |
| CC(=O)N[C@@H](Cc1csc2ccccc12)C(=O)N[C@@H](CSCP(=O)(O)O)C(=O)N1CCCC[C@H]1C(=O)N[C@@H](Cc1ccc2ccccc2c1)C(N)=O [Compound 2, {2-(2-Acetylamino-3-benzo[b]thiophen-3-yl-propionylamino)-3-[2-(1-carbamoyl-2-naphthalen-2-yl-ethylcarbamoyl)-piperidin-1-yl]-3-oxo-propylsulfanylmethyl}-phosphonic acid] |  | < 1 µM |
| O=C(NCCc1ccc2ccccc2c1)[C@@H]1CCCCN1C(=O)CSCP(=O)(O)O [Compound 59, {2-[2-(2-Naphthalen-2-yl-ethylcarbamoyl)-piperidin-1-yl]-2-oxo-ethylsulfanylmethyl}-phosphonic acid] | 1 to 10 µM |  |

Second part, led by results:

| IC50 [1] | Compound | IC50 |
| --- | --- | --- |
| < 1 µM | O=C(NC(Cc1ccc2ccccc2c1)c1ccccc1)[C@@H]1CCCCN1C(=O)CSCP(=O)(O)O (some centres unmarked) [Compound 73, {2-[2-(2-Naphthalen-2-yl-1-phenyl-ethylcarbamoyl)-piperidin-1-yl]-2-oxo-ethylsulfanylmethyl}-phosphonic acid] |  |
| < 1 µM | CC(C)(C)NC(=O)[C@H](Cc1ccc2ccccc2c1)NC(=O)[C@@H]1CCCCN1CCSCP(=O)(O)O [Compound 71, {2-[2-(1-tert-Butylcarbamoyl-2-naphthalen-2-yl-ethylcarbamoyl)-piperidin-1-yl]-ethylsulfanylmethyl}-phosphonicacid] |  |
| < 1 µM | NC(=O)[C@H](Cc1ccc2ccccc2c1)NC(=O)[C@@H]1CCCCN1C(=O)[C@H](CSCP(=O)(O)O)NC(=O)Cc1ccc(Cl)cc1 [Compound 35, {3-[2-(1-Carbamoyl-2-naphthalen-2-yl-ethylcarbamoyl)-piperidin-1-yl]-2-[2-(4-chloro-phenyl)-acetylamino]-3-oxo-propylsulfanylmethyl}-phosphonicacid] |  |
| 1 to 10 µM | NC(=O)[C@H](Cc1ccc2ccccc2c1)NC(=O)[C@@H]1CCCCN1C(=O)[C@H](CSCP(=O)(O)O)NC(=O)CCSCc1ccc(Cl)c(Cl)c1 [Compound 6, {3-[2-(1-Carbamoyl-2-naphthalen-2-yl-ethylcarbamoyl)-piperidin-1-yl]-2-[3-(3.4-dichloro-benzylsulfanyl)-propionylamino]-3-oxo-propylsulfanylmethyl}-phosphonic acid] ([Mpa](Benzyl(3,4-Cl2))C(CH2PO3H2)[Pip][2Nal]-NH2) |  |
| < 1 µM | NC(=O)[C@H](Cc1ccc2ccccc2c1)NC(=O)[C@@H]1CCCCN1C(=O)[C@H](CSCP(=O)(O)O)NS(=O)(=O)c1cccs1 [Compound 53, [3-[2-(1-Carbamoyl-2-naphthalen-2-yl-ethylcarbamoyl)-piperidin-1-yl]-3-oxo-2-(thiophene-2-sulfonylamino)propylsulfanyl-methyl]-phosphonic acid] |  |
| < 1 µM | O=C(NC(Cc1ccc2ccccc2c1)c1nnco1)[C@@H]1CCCCN1C(=O)CSCP(=O)(O)O (some centres unmarked) [Compound 75, {2-[2-(2-Naphthalen-2-yl-1-[1,3,4]oxadiazol-2-yl-ethylcarbamoyl)-piperidin-1-yl]-2-oxo-ethylsulfanylmethyl}-phosphonic acid] |  |
| < 1 µM | CC(=O)N[C@@H](Cc1csc2ccccc12)C(=O)N[C@@H](CSCP(=O)(O)O)CN1CCCC[C@H]1C(=O)N[C@@H](Cc1ccc2ccccc2c1)C(N)=O [Compound 25, {2-(2-Acetylamino-3-benzo[b]thiophen-3-yl-propionylamino)-3-[2-(1-carbamoyl-2-naphthalen-2-yl-ethylcarbamoyl)-piperidin-1-yl]-propylsulfanylmethyl}-phosphonicacid] |  |
| < 1 µM | NC(=O)[C@H](Cc1ccc2ccccc2c1)NC(=O)[C@@H]1CCCCN1C(=O)[C@H](CSCP(=O)(O)O)NS(=O)(=O)Cc1ccccc1 [Compound 32, {3-[2-(1-Carbamoyl-2-naphthalen-2-yl-ethylcarbamoyl)-piperidin-1-yl]-3-oxo-2-phenylmethane-sulfonylaminopropylsulfanyl-methyl}-phosphonic acid] |  |
| < 1 µM | NC(=O)[C@H](Cc1ccc2ccccc2c1)NC(=O)[C@@H]1CCCCN1C(=O)[C@H](CSCP(=O)(O)O)NC(=O)Cc1ccccc1 [Compound 21, {3-[2-(1-Carbamoyl-2-naphthalen-2-yl-ethylcarbamoyl)-piperidin-1-yl]-3-oxo-2-phenylacetylamino-propylsulfanylmethyl}-phosphonicacid] |  |
| < 1 µM | NC(=O)[C@H](Cc1ccc2ccccc2c1)NC(=O)[C@@H]1CCCCN1C(=O)[C@H](CSCP(=O)(O)O)NC(=O)c1ccccc1 [Compound 20, {2-Benzoylamino-3-[2-(1-carbamoyl-2-naphthalen-2-yl-ethylcarbamoyl)-piperidin-1-yl]-3-oxo-propylsulfanylmethyl}-phosphonic acid] |  |
| < 1 µM | CC(C)(C)NC(=O)[C@H](Cc1ccc2ccccc2c1)NC(=O)[C@@H]1CCCCN1C(=O)CSCP(=O)(O)O [Compound 63, {2-[2-(1-tert-Butylcarbamoyl-2-naphthalen-2-yl-ethylcarbamoyl)-piperidin-1-yl]-2-oxo-ethylsulfanylmethyl}-phosphonicacid] |  |
